# Where a SMILES comes first, the peptide text is derived from it. Bridges are numbered along the chain shown (N, C = ends). [ ]: non-standard residue; d: D form. The star is where a group is joined. hPhe(3,5-F2-4-CF3) = N[C@@H](CCc1cc(F)c(C(F)(F)F)c(F)c1)C(=O)O; hPhe(3-Cl-4-CF3) = N[C@@H](CCc1ccc(C(F)(F)F)c(Cl)c1)C(=O)O; NPrPhe(4-CF3) = CCCN[C@@H](Cc1ccc(C(F)(F)F)cc1)C(=O)O; NMeGly(cPent) = CN[C@H](C(=O)O)C1CCCC1; Nva(3-Et) = CCC(CC)[C@H](N)C(=O)O; NMeChg = CN[C@H](C(=O)O)C1CCCCC1; NMeD = CN[C@@H](CC(=O)O)C(=O)O; NMeL = CN[C@@H](CC(C)C)C(=O)O; Iva = CC[C@](C)(N)C(=O)O; Morpholide = C1CN(*)CCO1; NMeA = CN[C@@H](C)C(=O)O; Ac5c = NC1(C(=O)O)CCCC1; Aze = O=C(O)[C@@H]1CCN1; Ac4c = NC1(C(=O)O)CCC1; Sar = CNCC(=O)O
# What was measured:
# [1] = target: GDP-bound NRAS wild-type protein (Homo sapiens, UniProt P01111); assay: Binding to NRAS by surface plasmon resonance (SPR), KD and KD ratio to KRAS
# Chain of GDP-bound NRAS wild-type protein (P01111 whole entry): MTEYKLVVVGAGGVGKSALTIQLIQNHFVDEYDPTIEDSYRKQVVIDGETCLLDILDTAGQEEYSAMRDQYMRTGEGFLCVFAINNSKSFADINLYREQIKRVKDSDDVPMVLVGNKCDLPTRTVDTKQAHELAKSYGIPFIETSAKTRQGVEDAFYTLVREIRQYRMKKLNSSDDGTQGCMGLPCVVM
# Procedure, shortened: (§1)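 Each cycle, GDP-bound biotin-Avi RAS was captured (~100–300 RU), compound concentrations were injected low to high for 75 s each at 100 µL/min, then the chip was regenerated. Buffer: HBS pH 7.4, 10 mM MgCl2, 10 µM GDP, 1 mM DTT, 4% DMSO; 30°C. KD from a 1:1 binding model.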
# [2] = system: human lung cancer strain NCI-H441; format: cell-based
# Procedure, shortened: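 Signal came from […] measured per well once the reagent was added. Beforehand, cells were cultured at 37°C and 5% carbon dioxide on a compound series serially diluted in dimethyl sulfoxide.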
# HRAS wild-type protein = HRAS wild-type protein (Homo sapiens, UniProt P01112); assay: Binding to HRAS by surface plasmon resonance (SPR), KD and KD ratio to KRAS
# Chain of HRAS wild-type protein (P01112 whole entry): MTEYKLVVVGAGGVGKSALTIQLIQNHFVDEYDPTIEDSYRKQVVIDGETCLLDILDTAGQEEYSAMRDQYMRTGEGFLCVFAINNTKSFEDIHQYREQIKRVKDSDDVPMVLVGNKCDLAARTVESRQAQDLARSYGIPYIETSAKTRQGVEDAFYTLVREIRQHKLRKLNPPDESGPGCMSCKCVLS
# Procedure, shortened: as §1
# [3] = ratio of the KD value with respect to GDP-bound NRAS wild-type protein to the KD value with respect to KRAS
# [4] = ratio of the KD value with respect to HRAS wild-type protein to the KD value with respect to KRAS
# [5] = ratio of KD for GDP-bound NRAS wild-type protein to KD for KRAS
# [6] = ratio of KD for HRAS wild-type protein to KD for KRAS
# [7] = ratio of KD value for GDP-bound NRAS wild-type protein to KD value for KRAS (SPR)
# [8] = ratio of KD value for HRAS wild-type protein to KD value for KRAS (SPR)
structure (smiles),measurement,setting,value
CCO[C@@H]1C[C@H]2C(=O)NC3(CC(C)(C)C3)C(=O)N(C)[C@@H](C(CC)CC)C(=O)N(C)[C@H](C(=O)N(C)C)CC(=O)N(C)[C@@H](C(C)C)C(=O)N[C@@H]([C@@H](C)CC)C(=O)N(C)CC(=O)N(C)[C@H]3C/C=C\CCN(C3=O)[C@@H](Cc3ccc(C(F)(F)F)cc3)C(=O)N(C)CC(=O)N[C@@H](CCc3ccc(C(F)(F)F)c(Cl)c3)C(=O)N2C1 [PP2140],NRAS /KRAS,[1]; [3],AA (a compound having 20 or more is denoted as AA)
same,IC50,[2],24.7 nM
same,HRAS /KRAS,HRAS wild-type protein; [4],A (a compound having 10 or more and less than 20 is denoted as A)
CCO[C@@H]1C[C@H]2C(=O)NC3(CC(C)(C)C3)C(=O)N(C)[C@@H](C3CCCC3)C(=O)N(C)[C@H](C(=O)N(C)CC)CC(=O)N(C)[C@@H](C(C)C)C(=O)N[C@@H]([C@@H](C)CC)C(=O)N(C)CC(=O)N(C)[C@H]3C/C=C\CCN(C3=O)[C@@H](Cc3ccc(C(F)(F)F)cc3)C(=O)N(C)CC(=O)N[C@@H](CCc3ccc(C(F)(F)F)c(OC)c3)C(=O)N2C1 [PP1977],NRAS /KRAS,[1]; [3],AA (a compound having 20 or more is denoted as AA)
same,IC50,[2],20.2 nM
same,HRAS /KRAS,HRAS wild-type protein; [4],A (a compound having 10 or more and less than 20 is denoted as A)
CCC(CC)[C@H]1C(=O)N(C)[C@H](C(=O)N(C)C)CC(=O)N(C)[C@H]2CCC/C=C/c3ccc(cc3)C[C@@H](C(=O)N(C)CC(=O)N[C@@H](CCc3cc(F)c(C(F)(F)F)c(F)c3)C(=O)N3C[C@H](OC(C)C)C[C@H]3C(=O)NC3(CC(C)(C)C3)C(=O)N1C)N1CC/C=C\C[C@@H](C1=O)N(C)C(=O)CN(C)C(=O)[C@H]([C@@H](C)CC)NC2=O [PP2594],NRAS /KRAS,[1]; [5],A (a compound having 10 or more and less than 20 is denoted as A)
same,IC50,[2],6 nM
same,HRAS /KRAS,HRAS wild-type protein; [6],A (a compound having 10 or more and less than 20 is denoted as A)
CC[C@H](C)[C@@H]1NC(=O)[C@@H]2CCCCc3ccc(cc3)C[C@@H](C(=O)N(C)CC(=O)N[C@@H](CCc3ccc(C(F)(F)F)c(OC)c3)C(=O)N3C[C@H](OC4CCCC4)C[C@H]3C(=O)NC3(CC(C)(C)C3)C(=O)N(C)[C@@H](C3CCCC3)C(=O)N(C)[C@H](C(=O)N(C)C)CC(=O)N2C)N2CC/C=C\C[C@@H](C2=O)N(C)C(=O)CN(C)C1=O [PP3080],NRAS /KRAS,[1]; [5],A (a compound having 10 or more and less than 20 is denoted as A)
same,IC50,[2],4.3 nM
same,HRAS /KRAS,HRAS wild-type protein; [6],B (a compound having 3 or more and less than 10 is denoted as B)
CCCN1C(=O)CN(C)C(=O)CN(C)C(=O)[C@H]([C@@H](C)CC)NC(=O)[C@H](CC(C)C)N(C)C(=O)C[C@@H](C(=O)N2CCOCC2)N(C)C(=O)[C@H](C2CCCCC2)N(C)C(=O)C2(CCC2)NC(=O)[C@@H]2CCCN2C(=O)[C@H](CCc2ccc(C(F)(F)F)c(Cl)c2)NC(=O)CN(C)C(=O)[C@@H]1Cc1ccc(C(F)(F)F)cc1 [PP1928] ([NMeL]I[Sar][Sar][NPrPhe(4-CF3)][Sar][hPhe(3-Cl-4-CF3)]P[Ac4c][NMeChg][NMeD]-Morpholide; lactam N-11),NRAS /KRAS,[1]; [3],B (a compound having 3 or more and less than 10 is denoted as B)
same,IC50,[2],18.4 nM
same,HRAS /KRAS,HRAS wild-type protein; [4],B (a compound having 3 or more and less than 10 is denoted as B)
CCO[C@@H]1C[C@H]2C(=O)NC3(CC(C)(C)C3)C(=O)N(C)[C@@H](C3CCCC3)C(=O)N(C)[C@H](C(=O)N(C)CC)CC(=O)N(C)[C@@H](C3CCC3)C(=O)N[C@@H]([C@@H](C)CC)C(=O)N(C)CC(=O)N(C)[C@H]3C/C=C\CCN(C3=O)[C@@H](Cc3ccc(C(F)(F)F)cc3)C(=O)N(C)CC(=O)N[C@@H](CCc3cc(F)c(C(F)(F)F)c(F)c3)C(=O)N2C1 [PP2038],NRAS /KRAS,[1]; [3],A (a compound having 10 or more and less than 20 is denoted as A)
same,IC50,[2],5.5 nM
same,HRAS /KRAS,HRAS wild-type protein; [4],A (a compound having 10 or more and less than 20 is denoted as A)
"CCCN1C(=O)CN(C)C(=O)CN(C)C(=O)[C@H]([C@@H](C)CC)NC(=O)[C@H](CC(C)C)N(C)C(=O)C[C@@H](C(=O)N(C)C)N(C)C(=O)[C@H](C2CCCC2)N(C)C(=O)[C@](C)(CC)NC(=O)[C@@H]2CCCN2C(=O)[C@H](CCc2cc(F)c(C(F)(F)F)c(F)c2)NC(=O)CN(C)C(=O)[C@@H]1Cc1ccc(C(F)(F)F)cc1 [PP0805] ([NMeL]I[Sar][Sar][NPrPhe(4-CF3)][Sar][hPhe(3,5-F2-4-CF3)]P[Iva][NMeGly(cPent)][NMeD]-NMe2; lactam N-11)",NRAS /KRAS,[1]; [5],B (a compound having 3 or more and less than 10 is denoted as B)
same,IC50,[2],10.3 nM
same,HRAS /KRAS,HRAS wild-type protein; [6],C (A compound having a KD ratio of 0.1 or more and less than 3 is denoted as C)
"CCCN1C(=O)CN(C)C(=O)CN(C)C(=O)[C@H](C(CC)CC)NC(=O)[C@H](CC(C)C)N(C)C(=O)C[C@@H](C(=O)N(C)C)N(C)C(=O)[C@H](C2CCCC2)N(C)C(=O)C2(CCCC2)NC(=O)[C@@H]2CCCN2C(=O)[C@H](CCc2cc(F)c(C(F)(F)F)c(F)c2)NC(=O)CN(C)C(=O)[C@@H]1Cc1ccc(C(F)(F)F)cc1 [PP0747] ([NMeL][Nva(3-Et)][Sar][Sar][NPrPhe(4-CF3)][Sar][hPhe(3,5-F2-4-CF3)]P[Ac5c][NMeGly(cPent)][NMeD]-NMe2; lactam N-11)",NRAS /KRAS,[1]; [3],B (a compound having 3 or more and less than 10 is denoted as B)
same,IC50,[2],45.9 nM
same,HRAS /KRAS,HRAS wild-type protein; [4],C (A compound having a KD ratio of 0.1 or more and less than 3 is denoted as C)
CCCN1C(=O)[C@@H]2CCN2C(=O)[C@H](C)N(C)C(=O)[C@H]([C@@H](C)CC)NC(=O)[C@H](CC(C)C)N(C)C(=O)C[C@@H](C(=O)N(C)C)NC(=O)[C@H](C2CCCC2)N(C)C(=O)C2(CCC2)NC(=O)[C@@H]2CCCN2C(=O)[C@H](CCc2ccc(C(F)(F)F)c(Cl)c2)NC(=O)CN(C)C(=O)[C@@H]1Cc1ccc(C(F)(F)F)cc1 [PP0380] ([NMeL]I[NMeA][Aze][NPrPhe(4-CF3)][Sar][hPhe(3-Cl-4-CF3)]P[Ac4c][NMeGly(cPent)]D-NMe2; lactam N-11),NRAS /KRAS,[1]; [5],C (A compound having a KD ratio of 0.1 or more and less than 3 is denoted as C)
same,IC50,[2],16.4 nM
same,HRAS /KRAS,HRAS wild-type protein; [6],B (a compound having 3 or more and less than 10 is denoted as B)
CCCN(C)C(=O)[C@@H]1CC(=O)N(C)[C@@H](C)C(=O)N[C@@H]([C@@H](C)CC)C(=O)N(C)CC(=O)N(C)[C@H]2C/C=C\CCN(C2=O)[C@@H](Cc2ccc(C(F)(F)F)cc2)C(=O)N(C)CC(=O)N[C@@H](CCc2cc(F)c(C(F)(F)F)c(F)c2)C(=O)N2C[C@H](F)C[C@H]2C(=O)NC2(CC(C)(C)C2)C(=O)N(C)[C@@H](C2CCCC2)C(=O)N1C [PP1663],NRAS /KRAS,[1]; [7],AA (a compound having 20 or more is denoted as AA)
same,IC50,[2],3.6 nM
same,HRAS /KRAS,HRAS wild-type protein; [8],A (a compound having 10 or more and less than 20 is denoted as A)
CCCOC[C@H]1C(=O)N[C@@H]([C@@H](C)CC)C(=O)N(C)CC(=O)N(C)[C@H]2C/C=C\CCN(C2=O)[C@@H](Cc2ccc(C(F)(F)F)cc2)C(=O)N(C)CC(=O)N[C@@H](CCc2cc(F)c(C(F)(F)F)c(F)c2)C(=O)N2CC(F)(F)C[C@H]2C(=O)NC2(CC(C)(C)C2)C(=O)N(C)[C@@H](C2CCCC2)C(=O)N(C)[C@H](C(=O)N(C)C)CC(=O)N1C [PP1718],NRAS /KRAS,[1]; [7],AA (a compound having 20 or more is denoted as AA)
same,IC50,[2],2.5 nM
same,HRAS /KRAS,HRAS wild-type protein; [8],A (a compound having 10 or more and less than 20 is denoted as A)

# Reference: patent publication EP4603105A1, “PHARMACEUTICAL COMPOSITION CONTAINING CYCLIC COMPOUND HAVING SELECTIVE KRAS INHIBITORY EFFECT AGAINST HRAS AND NRAS” (CHUGAI SEIYAKU KABUSHIKI KAISHA, priority 2022, dated 2024)
